Test results as given in patent US20110110886A1, “SMALL MOLECULE INHIBITORS OF AUTOTAXIN AND METHODS OF USE” (Yale University, priority 2008, published 2011).
Several values for one entry are separate records, joined by “and”; a condition that tells them apart may be missing. Equal entries are not always repeated. Where two headings read alike, the source gives them in different places.

Legend:
[1] = biological target: T1, ATX (recombinant full-length human ATX), PDE activity (Homo sapiens, UniProt Q13822); test: Steady-state ATX phosphodiesterase (PDE) activity with pNP-TMP, absorbance 405 nm; type: biochemical; conditions: for Ki: 25° C., read-out: KI (dissociation equilibrium constant for inhibitor binding), ATX PDE activity
T1 construct: consistent with a mature, glycosylated form of the enzyme; TEV cleavage site (C); 9-His (C); 6-His (C); made in house; host or cells: High Five insect cells (baculovirus, p-DEST-8)
Source text: Protein expression and purification: The full length human NPP2 gene (NCBI accession #BC034961) followed by a C-terminal TEV cleavage site and a 9-His and 6-His purification tag was cloned and transferred into a p-DEST-8 baculovirus shuttle vector (Invitrogen), and bacmid DNA was generated by standard methods. The DNA sequence and correct transposition of the genes was verified by PCR, and recombinant full-length human ATX was expressed in High Five insect cells using standard methods. Three days post infection, the supernatant was adjusted to a final concentration of 50 mM Tris pH 8.0, 5 mM CaCl2, and 1 mM NiSO4 and stirred for 10 min. at room temperature. The resulting precipitant was removed by centrifugation (4,420×g for 30 minutes) and filtration ([…]), and the supernatant was concentrated using a Pall concentration system to approximately 250 mL. The cell media was passed over a nickel affinity column (5 mL, Fastflow resin), equilibrated in binding buffer (20 mM Tris pH 8.0, 300 mM NaCl, 20 mM imidazole, and 20% ethylene glycol) at 4° C., washed with 10 column volumes of binding buffer, and then eluted with binding buffer supplemented with 300 mM imidazole. Purified ATX was concentrated to approximately 10 mg mL^−1, and dialyzed into the appropriate assay buffer.
Steady-state enzyme assays: Phosphodiesterase activity of ATX (75-100 nM) was measured by absorbance (λ=405 nm) on a SpectraMax 250 plate reader at 25° C. with the substrate pNP-TMP [36]. Reactions were run in assay buffer containing 10% DMSO (v/v) and 1 mg mL^−1 BSA (hexachlorophene, merbromin, and bithionol) or without BSA (NSC 48300, 2,2′-Methylenebis(4-chlorophenol), eosin Y, and RJC 03297) in a total volume of […]. The uncatalyzed reaction rate was ≦10^−7 s^−1 (data not shown).
The steady-state rates (v) of product formation were obtained by fitting the time courses of absorbance or fluorescence change to linear functions. Absorbance units were converted to p-nitrophenylate concentration using ε405 of 18.5 mM^−1 cm^−1 [39] and a measured path length of 0.494 cm. FS-3 hydrolysis product formation was quantitated in arbitrary fluorescence units.
(§1) The Michaelis constants (KM) and the catalytic turnover rate constants (kcat) were obtained by fitting the [substrate]-dependence of v to a rectangular hyperbola in the form of the Briggs-Haldane equation: […]
(§2) in which [S] is [pNP-TMP] or [FS-3]. Inhibitors were treated as reversible inhibitors and analyzed according to the general steady-state linear enzyme inhibitor scheme:
(§3) in which E is ATX, S is pNP-TMP or FS-3 substrate, P are the hydrolysis products, and K1 is the dissociation equilibrium constant for inhibitor binding. The values of α and K1 were obtained by fitting the steady-state rates of product formation (v) to the general inhibition equation: […]
(§4) in which [I] is the inhibitor concentration, kcat is the maximum catalytic turnover rate, and KS is the Michaelis constant of the substrate obtained in the absence of inhibitor.
(§5) The type of inhibition (competitive, noncompetitive, or uncompetitive) depends on the value of α.
(§6) The type of inhibition was assigned if the difference between the r^2 values of the fits to the general inhibition equation (Eq 2) and the specific inhibition (i.e. competitive, noncompetitive or uncompetitive) equations was less than 0.01.

[2] = biological target: T2, ATX (recombinant full-length human ATX), lysoPLD activity (Homo sapiens, UniProt Q13822); test: Steady-state ATX lysoPLD activity with fluorescent LPC analogue FS-3; type: biochemical; conditions: for inhibition of ATX lysoPLD activity by GenPlus screen inhibitor analogs / type of inhibition of ATX lysoPLD activity: substrate FS-3; for Ki: substrate FS-3, 37° C.
T2 construct: consistent with a mature, glycosylated form of the enzyme; TEV cleavage site (C); 9-His (C); 6-His (C); made in house; host or cells: High Five insect cells (baculovirus, p-DEST-8)
Procedure: Protein expression and purification: The full length human NPP2 gene (NCBI accession #BC034961) followed by a C-terminal TEV cleavage site and a 9-His and 6-His purification tag was cloned and transferred into a p-DEST-8 baculovirus shuttle vector (Invitrogen), and bacmid DNA was generated by standard methods. […] Three days post infection, the supernatant was adjusted to a final concentration of 50 mM Tris pH 8.0, 5 mM CaCl2, and 1 mM NiSO4 and stirred for 10 min. at room temperature. […] Purified ATX was concentrated to approximately 10 mg mL^−1, and dialyzed into the appropriate assay buffer.
Fluorescence was measured (λex=485 nm, λem=520 nm) on a SpectraMax Gemini XPS at 37° C. under buffer conditions similar to the PDE assays but lacking BSA. […] The spontaneous reaction rates were subtracted from the enzyme catalyzed rates.
The steady-state rates (v) of product formation were obtained by fitting the time courses of absorbance or fluorescence change to linear functions. […] FS-3 hydrolysis product formation was quantitated in arbitrary fluorescence units.
as §1, §2, §3, §4, §5, §6

[3] = tested on: adenocarcinoma cell motility; conditions: reported in ref. [40]; read-out: EC50, inhibition of adenocarcinoma cell motility; cited from earlier work
[4] = tested on: human melanoma cell line (A2058); test: Boyden chamber cell migration assay, melanoma cells; type: cell-based; conditions: for inhibition of ATX-induced stimulation of melanoma cell motility: A2058, 50 nM ATX, 4 hours
Procedure: (§7) All cell media was supplemented with 10% (v/v) fetal calf serum (FCS) (Gibco) and 1% (v/v) L-glutamine (Gibco) and grown at 37° C. in a humidified atmosphere containing 5% CO2.
The assay chambers are divided by a gelatin-coated membrane with […] pores (NeuroProbe). […] The chambers were then incubated at 37° C. for 4 hours, after which the filters were removed, fixed in 100% methanol, stained with a DiffQuick solution, and mounted onto glass slides. Non-migrating cells were removed from the membrane by scraping the top surface. The cells were quantitated by counting the cell number per high powered field in the various wells. Treatments were compared using a chi squared test.

A2058 melanoma cells = test: Matrigel cell invasion assay, melanoma cells; type: cell-based, human; conditions: for inhibition of ATX-induced stimulation of melanoma cell invasion: A2058, 50 nM ATX
Procedure: as §7
Cell invasion assays: Matrigel matrix (1 mg/ml, Becton Dickenson) was added to […] gelatin-coated membranes placed in cell culture inserts (BD Falcon) and allowed to set for 24 hours at room temperature. The inserts were placed into companion 24 well plates (BD Falcon), and chemo-attractants (ATX ±inhibitors) and/or controls were added to the bottom of the wells. Cells (1×10^6) were added to the inserts and incubated for 3 hours at 37° C. Following incubation, the inserts were removed, fixed in 100% methanol, stained with DiffQuick solution, and mounted on glass slides. Non-invading cells were removed by scraping away the matrigel, and migrating cells were quantitated by counting cell number per high-powered field.

ATX lyso-PLD activity = biological target: T3, ATX lyso-PLD activity (Homo sapiens, UniProt Q13822); test: Time course assay of ATX lyso-PLD activity (FS-3 fluorescent product) with or without 10 μM compound over 30 minutes; type: biochemical; conditions: 10 μM inhibitor, 30 minute interval, compared with NSC 48300
T3 construct: consistent with a mature, glycosylated form of the enzyme; TEV cleavage site (C); 9-His (C); 6-His (C); made in house; host or cells: High Five insect cells (baculovirus, p-DEST-8)
Procedure: C. Structure of hexachlorophene, merbromin. Bithionol and their analogs -2,2′-Methylenebis(4-chlorophenol), Eosin Y and RJC 03297, respectively. D. Structure of NSC 48300 and its analogs. […] The assay conditions are 300 nM ATX in the presence or absence of 10 μM compound over 30 minutes.
Inhibitor screen: High throughput screens were performed against two libraries: the GenPlus library of 960 compounds (NINDS Custom Collection, MicroSource Discovery systems) and the NCI Diversity Set (1990 compounds, see http://dtp.nci.nih.gov/branches/dscb/repo_open.html). The screens were performed at the Yale Center for Chemical Genomics utilizing a Tecan Aquarius robot in combination with an Aquarius liquid handler and a Freedom EVO Workstation. A V&P Scientific 384 pin tool transferred small molecules (10 mM stock) from library plates into the optically clear, 384 well assay plates, and an Aquarius liquid handling robot transferred protein into the individual wells. The assays were performed in a total volume of 50 μL in assay buffer (50 mM Tris, 140 mM NaCl, 1 mM MgCl2, and 5 mM CaCl2, pH 8.0). Absorbance of p-nitrophenylate, the product of ATX's PDE activity with pNP-TMP (discussed below) was measured at 405 nm over a period of 12 hours. To monitor lysophospholipase-D activity, the fluorescence of FS-3 (625 nM or 4 μM) was monitored (λex=480 nm, λem=535 nm) in assay buffer over a period of 30 minutes in the presence of 300 nM ATX and 10 μM compound. The assay was evaluated using a statistical Z′ analysis, a quantitative measure to determine assay robustness for single point analysis on a high throughput screening platform. The Z′ analysis was performed from 32 maximum control values (c+) and 32 minimum controls (c−) on each plate. Assays consistently performed with Z′ factors of 0.75-0.85, higher than the minimum 0.5 considered robust.
Inhibition of ATX lyso-PLD activity by several NSC48300 analogs was qualitatively compared in a time course assay by measuring the production of fluorescent product in the presence or absence of 10 µM inhibitor over a 30 minute interval.

[5] = ATX-dependent hydrolysis, fit to Eq. 1

With Oc1ccc(Cl)cc1Cc1cc(Cl)ccc1O [2,2′-Methylenebis(4-chlorophenol)] the “type of inhibition of ATX PDE activity” value ([1]; substrate pNP-TMP) was “noncompetitively”, the Ki ([1]; substrate pNP-TMP) was 104 µM and the “inhibition of ATX lysoPLD activity by GenPlus screen inhibitor analogs” value [2] was “only Eosin Y (an analogue of merbromin) inhibits ATX lysoPLD activity”.
For Cc1ccc2c(c1)C(=O)C1(O)CCN(c3ccccc3)C1=N2 (stereo not shown) [Blebbistatin], the EC50 [3] is given as roughly 50 µM, the EC50 ([4]; A2058, 75 nM LPA, read-out: EC50, inhibition of cell motility with addition of LPA) is given as 27 µM and the EC50 ([4]; A2058, in the presence of 50 nM ATX, read-out: EC50, inhibition of ATX-induced cell motility) is given as 54 µM.
With O=C1OC2(c3ccccc31)c1cc(Br)c(O)c(Br)c1Oc1c2cc(Br)c(O)c1Br [Eosin Y] the “type of inhibition of ATX PDE activity” value ([1]; substrate pNP-TMP) was “competitively”, the Ki ([1]; substrate pNP-TMP) was 9.6 µM and the “inhibition of ATX lysoPLD activity by GenPlus screen inhibitor analogs” value [2] was “inhibits ATX lysoPLD activity”. The “type of inhibition of ATX lysoPLD activity” value [2] was “noncompetitive” and the Ki [2] was 116 µM.
For Oc1c(Cl)cc(Cl)c(Cl)c1Cc1c(O)c(Cl)cc(Cl)c1Cl [Hexachlorophene], the “type of inhibition of ATX PDE activity” value ([1]; substrate pNP-TMP) was “competitive inhibition”, the “α value from general steady-state inhibition equation (Eq. 2)” value ([1]; substrate pNP-TMP) was greater than 45 and the Ki ([1]; substrate pNP-TMP) was 15 µM. The “inhibition of ATX-induced stimulation of melanoma cell invasion” value (A2058 melanoma cells) was “inhibited in a dose-dependent manner”, the “type of inhibition of ATX lysoPLD activity” value [2] was “competitive inhibitor” and the Ki [2] was 68 µM. For the same molecule, the “inhibition of ATX-induced stimulation of melanoma cell motility” value [4] was “inhibited in a dose-dependent manner”.
With O=C([O-])c1ccccc1-c1c2cc(Br)c(=O)cc-2oc2[c]([Hg+])c([O-])c(Br)cc12.[Na+].[Na+].[OH-] [Merbromin] the “type of inhibition of ATX PDE activity” value ([1]; substrate pNP-TMP) was “noncompetitive inhibition”, the Ki ([1]; substrate pNP-TMP) was 43 µM and the “inhibition of ATX-induced stimulation of melanoma cell invasion” value (A2058 melanoma cells) was “inhibited in a dose-dependent manner”. The “inhibition of ATX-induced stimulation of melanoma cell motility” value [4] was “inhibited in a dose-dependent manner”.
In the case of O=[As](O)(O)c1ccc(-c2ccc([As](=O)(O)O)cc2)cc1 [NSC 13792], the “qualitative effect of structural change on inhibition of ATX lyso-PLD activity” value (ATX lyso-PLD activity) is reported as “eliminates inhibition”.
In the case of COC(=O)c1ccc(Cc2ccc(C(=O)OC)cc2)cc1 [NSC 86629], the “qualitative effect of structural change on inhibition of ATX lyso-PLD activity” value (ATX lyso-PLD activity) is reported as “eliminates inhibition”.
In the case of Cc1cn([C@H]2C[C@H](O)[C@@H](COP(=O)(O)Oc3ccc([N+](=O)[O-])cc3)O2)c(=O)[nH]c1=O [pNP-TMP, p-Nitrophenyl 5′-thymidine monophosphate], the Km [1, 5] is reported as 1400 µM and the “kcat for pNP-TMP hydrolysis” value [1, 5] is reported as 1.6 s^−1 and 1.6 (±0.1) s^−1.
Molecule Fluorescent Substrate-3 [FS-3] has a Km [2, 5] of 4.5 µM.
In the case of lysophosphatidic acid [LPA], the “increase in number of invading cells per hpf” value (A2058 melanoma cells; A2058, ATX (50 nM) or LPA (75 nM)) is reported as 3.5 fold.
